{"source": "paper PMC5897141", "about": "(Journal of neurochemistry, 2018)", "origin": "cited, not measured here", "key": {"VAChT": {"system": "VAChT", "details": "NHP brain; ref Nishiyama et al. 2014; cited from earlier work"}, "σ1/2 receptors": {"system": "σ1/2 receptors", "details": "ref Shiba et al. 2006, Kawamura et al. 2006; cited from earlier work"}}, "data": [{"compound": "Cc1cccc2c1C[C@@H](O)[C@H](N1CCN(c3ccccc3N)CC1)C2", "note": "(relative stereo) [[^11C](R,R)HAPT, (R,R)-trans-8-methyl-2-hydroxy-3-[4-[2-aminophenyl]-piperizinyl]tetralin, reference compound]", "values": [{"measurement": "time-activity curves peak time post injection", "setting": "VAChT", "value": "≤ 20", "unit": "min"}, {"measurement": "selectivity for VAChT versus σ1/2 receptors", "setting": "σ1/2 receptors", "value": 10, "unit": "fold"}]}]}
